Laboratory results: patent US6914045B2, “Glycopeptide antibiotics” (Wyeth Holdings Corporation, priority 2001, dated 2005)
≈ marks a conversion by molar mass, not a printed value. One block for each compound: values may come before it.

Experiments:
Test in all cases: in vitro antibacterial evaluation, MIC by broth dilution
Type in all cases: cell-based
Enterococcus sp. = settings: broth dilution, 18 hours at 35° C.
Method in brief: (§1)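 MIC = lowest antibiotic concentration preventing visible growth; inoculum 5×10^5 CFU/mL; drug range 64-0.06 μg/mL; Muller-Hinton II […]; NCCLS M7-A2 guidance.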

Streptococcus sp. = settings: broth dilution, 18 hours at 35° C.
Method in brief: as §1

Staphylococcus sp. = settings: broth dilution, 18 hours at 35° C.; for MIC Staphylococcus aureus (ATCC 29213): strain ATCC 29213; for MIC Staphylococcus aureus (GC 1131): strain GC 1131; for MIC Staphylococcus aureus (GC 3051): strain GC 3051; for MIC Staphylococcus aureus (GC 3053): strain GC 3053; for MIC Staphylococcus aureus (GC 4541): strain GC 4541; for MIC Staphylococcus aureus (GC 4542): strain GC 4542; for MIC Staphylococcus aureus-SMITH (GC 4543): strain GC 4543; for MIC Staphylococcus aureus (GC 4544): strain GC 4544; for MIC Staphylococcus aureus (GC 4545): strain GC 4545; for MIC Staphylococcus haemolyticus (GC 4546): strain GC 4546; for MIC Coagulase Negative Staphylococcus (GC 4547): strain GC 4547; for MIC Coagulase Negative Staphylococcus (GC 4548): strain GC 4548; for MIC Coagulase Negative Staphylococcus (GC 4549): strain GC 4549; for MIC Coagulase Negative Staphylococcus (GC 4551): strain GC 4551
Method in brief: as §1

Escherichia coli = settings: 18 hours at 35° C.
Method in brief: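 Broth dilution MIC per NCCLS M7-A2 in Mueller-Hinton II medium, inoculum 5×10^5 CFU/mL, antibiotic range 64-0.06 μg/mL. MIC taken as lowest concentration inhibiting growth.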

MIC Enterococcus avium (GC 4558) (Enterococcus sp.; Enterococcus avium (GC 4558)): 128 µg/mL (≈ 130 µM)
MIC Enterococcus faecalis (ATCC 29212) (Enterococcus sp.; Enterococcus faecalis (ATCC 29212)): >128 µg/mL
MIC Enterococcus faecalis (GC 4552) (Enterococcus sp.; Enterococcus faecalis (GC 4552)): >128 µg/mL
MIC Enterococcus faecalis (GC 4553) (Enterococcus sp.; Enterococcus faecalis (GC 4553)): >128 µg/mL
MIC Enterococcus faecalis (GC 4554) (Enterococcus sp.; Enterococcus faecalis (GC 4554)): >128 µg/mL
MIC Enterococcus faecalis (GC 6189) (Enterococcus sp.; Enterococcus faecalis (GC 6189)): >128 µg/mL
MIC Enterococcus faecium (GC 2243) (Enterococcus sp.; Enterococcus faecium (GC 2243)): >128 µg/mL
MIC Enterococcus faecium (GC 4556) (Enterococcus sp.; Enterococcus faecium (GC 4556)): >128 µg/mL
MIC Enterococcus faecium (GC 4557) (Enterococcus sp.; Enterococcus faecium (GC 4557)): 128 µg/mL (≈ 130 µM)
MIC Enterococcus faecalis (ATCC 29212) (Enterococcus sp.; strain ATCC 29212): >128 µg/mL
MIC Enterococcus faecalis (GC 2242) (Enterococcus sp.; strain GC 2242): >128 µg/mL
MIC Enterococcus faecium (GC 2243) (Enterococcus sp.; strain GC 2243): >128 µg/mL
MIC Enterococcus faecalis (GC 2691) (Enterococcus sp.; strain GC 2691): >128 µg/mL
MIC Enterococcus faecalis (GC 3059) (Enterococcus sp.; strain GC 3059): >128 µg/mL
MIC Enterococcus faecalis (GC 4552) (Enterococcus sp.; strain GC 4552): >128 µg/mL
MIC Enterococcus faecalis (GC 4553) (Enterococcus sp.; strain GC 4553): >128 µg/mL
MIC Enterococcus faecalis (GC 4554) (Enterococcus sp.; strain GC 4554): >128 µg/mL
MIC Enterococcus faecium (GC 4556) (Enterococcus sp.; strain GC 4556): >128 µg/mL
MIC Enterococcus faecium (GC 4557) (Enterococcus sp.; strain GC 4557): 128 µg/mL (≈ 130 µM)
MIC Enterococcus avium (GC 4558) (Enterococcus sp.; strain GC 4558): 128 µg/mL (≈ 130 µM)
MIC Enterococcus faecalis (GC 6189) (Enterococcus sp.; strain GC 6189): >128 µg/mL
MIC Streptococcus pneumoniae (ATCC 6301) (Streptococcus sp.; strain ATCC 6301): >128 µg/mL
MIC Streptococcus pneumoniae (GC 1894) (Streptococcus sp.; strain GC 1894): 128 µg/mL (≈ 130 µM)
MIC Streptococcus pyogenes (GC 4563) (Streptococcus sp.; strain GC 4563): >128 µg/mL
MIC Streptococcus agalactiae (GC 4564) (Streptococcus sp.; strain GC 4564): >128 µg/mL
MIC Streptococcus pneumoniae (GC 4565) (Streptococcus sp.; strain GC 4565): >128 µg/mL
MIC Staphylococcus aureus (ATCC 29213) (Staphylococcus sp.): >128 µg/mL
MIC Staphylococcus aureus (GC 1131) (Staphylococcus sp.): >128 µg/mL
MIC Staphylococcus aureus (GC 3051) (Staphylococcus sp.): >128 µg/mL
MIC Staphylococcus aureus (GC 3053) (Staphylococcus sp.): >128 µg/mL
MIC Staphylococcus aureus (GC 4541) (Staphylococcus sp.): >128 µg/mL
MIC Staphylococcus aureus (GC 4542) (Staphylococcus sp.): >128 µg/mL
MIC Staphylococcus aureus-SMITH (GC 4543) (Staphylococcus sp.): >128 µg/mL
MIC Staphylococcus aureus (GC 4544) (Staphylococcus sp.): >128 µg/mL
MIC Staphylococcus aureus (GC 4545) (Staphylococcus sp.): >128 µg/mL
MIC Coagulase Negative Staphylococcus (GC 4547) (Staphylococcus sp.): >128 µg/mL
MIC Coagulase Negative Staphylococcus (GC 4548) (Staphylococcus sp.): >128 µg/mL
MIC Coagulase Negative Staphylococcus (GC 4549) (Staphylococcus sp.): >128 µg/mL
MIC Coagulase Negative Staphylococcus (GC 4551) (Staphylococcus sp.): >128 µg/mL
MIC Escherichia coli (ATCC 25922) (Escherichia coli; strain ATCC 25922, broth dilution): >128 µg/mL
MIC Escherichia coli (GC 4559) (Escherichia coli; strain GC 4559, broth dilution): >128 µg/mL
MIC Escherichia coli (GC 4560) (Escherichia coli; strain GC 4560, broth dilution): >128 µg/mL
Structure (SMILES): CC(C1CCCCC1)C1NC(=O)CNC(=O)C(CO)NC(=O)C(C(O)C2CNC(=N)N2C2OC(CO)C(O)C(O)C2O)NC(=O)C(C(O)C2CNC(=N)N2)NC(=O)C(C[C@H]2CC[C@@H](O)CC2)NC1=O (stereo partly drawn) [Example 54, Cyclo[3-(syn-4-hydroxycyclohexyl)alanyl-3-(2-ininoimidazolidin-4-yl)seryl-3-(3-hexopyranosyl-2-iminoimidazolidin-4-yl)serylserylglycyl-3-cyclohexyl-2-aminobutanoyl]]
MIC Staphylococcus haemolyticus (GC 4546) (Staphylococcus sp.): >128 µg/mL

MIC Enterococcus avium (GC 4558) (Enterococcus sp.): 4 µg/mL (≈ 2.88 µM)
MIC Enterococcus faecalis (ATCC 29212) (Enterococcus sp.): 4 µg/mL (≈ 2.88 µM)
MIC Enterococcus faecalis (GC 2242) (Enterococcus sp.): 0.5 µg/mL (≈ 0.36 µM)
MIC Enterococcus faecalis (GC 2691) (Enterococcus sp.): 4 µg/mL (≈ 2.88 µM)
MIC Enterococcus faecalis (GC 3059) (Enterococcus sp.): 2 µg/mL (≈ 1.44 µM)
MIC Enterococcus faecalis (GC 4552) (Enterococcus sp.): 2 µg/mL (≈ 1.44 µM)
MIC Enterococcus faecalis (GC 4553) (Enterococcus sp.): 4 µg/mL (≈ 2.88 µM)
MIC Enterococcus faecalis (GC 4554) (Enterococcus sp.): 4 µg/mL (≈ 2.88 µM)
MIC Enterococcus faecalis (GC 6189) (Enterococcus sp.): 2 µg/mL (≈ 1.44 µM)
MIC Enterococcus faecium (GC 2243) (Enterococcus sp.): 4 µg/mL (≈ 2.88 µM)
MIC Enterococcus faecium (GC 4556) (Enterococcus sp.): 4 µg/mL (≈ 2.88 µM)
MIC Enterococcus faecium (GC 4557) (Enterococcus sp.): 2 µg/mL (≈ 1.44 µM)
MIC Enterococcus faecalis (ATCC 29212) (Enterococcus sp.; inoculum 5×10^5 CFU/mL, strain ATCC 29212): 4 µg/mL (≈ 2.88 µM)
MIC Enterococcus faecalis (GC 2242) (Enterococcus sp.; inoculum 5×10^5 CFU/mL, strain GC 2242): 0.5 µg/mL (≈ 0.36 µM)
MIC Enterococcus faecium (GC 2243) (Enterococcus sp.; inoculum 5×10^5 CFU/mL, strain GC 2243): 4 µg/mL (≈ 2.88 µM)
MIC Enterococcus faecalis (GC 2691) (Enterococcus sp.; inoculum 5×10^5 CFU/mL, strain GC 2691): 4 µg/mL (≈ 2.88 µM)
MIC Enterococcus faecalis (GC 3059) (Enterococcus sp.; inoculum 5×10^5 CFU/mL, strain GC 3059): 2 µg/mL (≈ 1.44 µM)
MIC Enterococcus faecalis (GC 4552) (Enterococcus sp.; inoculum 5×10^5 CFU/mL, strain GC 4552): 2 µg/mL (≈ 1.44 µM)
MIC Enterococcus faecalis (GC 4553) (Enterococcus sp.; inoculum 5×10^5 CFU/mL, strain GC 4553): 4 µg/mL (≈ 2.88 µM)
MIC Enterococcus faecalis (GC 4554) (Enterococcus sp.; inoculum 5×10^5 CFU/mL, strain GC 4554): 4 µg/mL (≈ 2.88 µM)
MIC Enterococcus faecium (GC 4556) (Enterococcus sp.; inoculum 5×10^5 CFU/mL, strain GC 4556): 4 µg/mL (≈ 2.88 µM)
MIC Enterococcus faecium (GC 4557) (Enterococcus sp.; inoculum 5×10^5 CFU/mL, strain GC 4557): 2 µg/mL (≈ 1.44 µM)
MIC Enterococcus avium (GC 4558) (Enterococcus sp.; inoculum 5×10^5 CFU/mL, strain GC 4558): 4 µg/mL (≈ 2.88 µM)
MIC Enterococcus faecalis (GC 6189) (Enterococcus sp.; inoculum 5×10^5 CFU/mL, strain GC 6189): 2 µg/mL (≈ 1.44 µM)
MIC Streptococcus agalactiae (GC 4564) (Streptococcus sp.): 0.12 µg/mL (≈ 0.0864 µM)
MIC Streptococcus pneumoniae (ATCC 6301) (Streptococcus sp.): <0.06 µg/mL
MIC Streptococcus pneumoniae (GC 1894) (Streptococcus sp.): <0.06 µg/mL
MIC Streptococcus pneumoniae (GC 4565) (Streptococcus sp.): <0.06 µg/mL
MIC Streptococcus pyogenes (GC 4563) (Streptococcus sp.): <0.06 µg/mL
MIC Streptococcus pneumoniae (ATCC 6301) (Streptococcus sp.; inoculum 5×10^5 CFU/mL, strain ATCC 6301): <0.06 µg/mL
MIC Streptococcus pneumoniae (GC 1894) (Streptococcus sp.; inoculum 5×10^5 CFU/mL, strain GC 1894): <0.06 µg/mL
MIC Streptococcus pyogenes (GC 4563) (Streptococcus sp.; inoculum 5×10^5 CFU/mL, strain GC 4563): <0.06 µg/mL
MIC Streptococcus agalactiae (GC 4564) (Streptococcus sp.; inoculum 5×10^5 CFU/mL, strain GC 4564): 0.12 µg/mL (≈ 0.0864 µM)
MIC Streptococcus pneumoniae (GC 4565) (Streptococcus sp.; inoculum 5×10^5 CFU/mL, strain GC 4565): <0.06 µg/mL
MIC Staphylococcus aureus (GC 1131) (Staphylococcus sp.; inoculum 5×10^5 CFU/mL): 2 µg/mL (≈ 1.44 µM)
MIC Staphylococcus aureus (ATCC 29213) (Staphylococcus sp.): 1 µg/mL (≈ 0.72 µM)
MIC Staphylococcus aureus (GC 1131) (Staphylococcus sp.): 2 µg/mL (≈ 1.44 µM)
MIC Staphylococcus aureus (GC 3051) (Staphylococcus sp.): 1 µg/mL (≈ 0.72 µM)
MIC Staphylococcus aureus (GC 3053) (Staphylococcus sp.): 2 µg/mL (≈ 1.44 µM)
MIC Staphylococcus aureus (GC 4541) (Staphylococcus sp.): 1 µg/mL (≈ 0.72 µM)
MIC Staphylococcus aureus (GC 4542) (Staphylococcus sp.): 1 µg/mL (≈ 0.72 µM)
MIC Staphylococcus aureus-SMITH (GC 4543) (Staphylococcus sp.): 1 µg/mL (≈ 0.72 µM)
MIC Staphylococcus aureus (GC 4544) (Staphylococcus sp.): 2 µg/mL (≈ 1.44 µM)
MIC Staphylococcus aureus (GC 4545) (Staphylococcus sp.): 1 µg/mL (≈ 0.72 µM)
MIC Coagulase Negative Staphylococcus (GC 4547) (Staphylococcus sp.): 2 µg/mL (≈ 1.44 µM)
MIC Coagulase Negative Staphylococcus (GC 4548) (Staphylococcus sp.): 1 µg/mL (≈ 0.72 µM)
MIC Coagulase Negative Staphylococcus (GC 4549) (Staphylococcus sp.): 1 µg/mL (≈ 0.72 µM)
MIC Coagulase Negative Staphylococcus (GC 4551) (Staphylococcus sp.): 2 µg/mL (≈ 1.44 µM)
MIC Escherichia coli (ATCC 25922) (Escherichia coli): 32 µg/mL (≈ 23 µM)
MIC Escherichia coli (GC 4559) (Escherichia coli): 32 µg/mL (≈ 23 µM)
MIC Escherichia coli (GC 4560) (Escherichia coli): 1 µg/mL (≈ 0.72 µM)
Structure (SMILES): N=C1NCC(C(O)C2NC(=O)C(Cc3ccc(OC4OC(CO)C(OC5OC6COC(Cc7ccccc7)OC6C(O)C5O)C(O)C4O)cc3)NC(=O)C(CC3CCCCC3)NC(=O)CNC(=O)C(CO)NC(=O)C(C(O)C3CNC(=N)N3C3OC(CO)C(O)C(O)C3O)NC2=O)N1 (centres unmarked) [Example 200]
MIC Staphylococcus haemolyticus (GC 4546) (Staphylococcus sp.): 1 µg/mL (≈ 0.72 µM)
